In patent publication US7175844B2, “Methods of modulating fibrosis” (Joslin Diabetes Center, Inc., priority 2000, dated 2007):
Read-outs that look alike come from different tables or passages of the source.

Experiments:
[1] = system: VEGF-induced CTGF mRNA expression; assay: Effect on VEGF-induced CTGF mRNA expression in BREC; type: cell-based, bovine
Procedure: (§1) H) Northern Blot Analysis—Total RNA was isolated using acid-guanidinium thiocyanate, and Northern blot analysis was performed. Total RNA (20 μg) was electrophoresed through 1% formaldehyde-agarose gels and then transferred to a nylon membrane. ^32P-Labeled cDNA probes were generated by use of labeling kits (Megaprime DNA labeling systems, Amersham Pharmacia Biotech). After ultraviolet cross-linking using a UV cross-linker (Stratagene, La Jolla, Calif.), blots were pre-hybridized, hybridized, and washed in 0.5×SSC, 5% SDS at 65° C. with 4 changes over 1 h. All signals were analyzed using a PhosphorImager, and lane loading differences were normalized.
(§2) I) Analysis of CTGF mRNA Half-life—CTGF mRNA half-life experiments were carried out using BREC and BRPC. […] Transcription was inhibited by the addition of actinomycin D (5 μg/ml).

[2] = system: VEGF-induced CTGF mRNA expression; assay: Effect on VEGF-induced CTGF mRNA expression in BRPC; type: cell-based, bovine; details: for effect on VEGF-induced CTGF mRNA expression: pretreatment GF 109203X 1 μM or PD98059 20 μM
Procedure: as §1, §2

[3] = molecular target: KDR/Flk1 (VEGFR2) (bovine); assay: cell-based or functional assay
Flt1 (VEGFR1) (bovine) = assay: cell-based or functional assay
CTGF mRNA [4] = assay: CTGF mRNA expression by Northern blot analysis in BREC; type: cell-based, bovine; details: for CTGF mRNA levels increase (comparative study): VEGF 25 ng/ml, TGF-β1 10 ng/ml
Procedure: (§3) Since BREC and BRPC may express both KDR and Flt1, we examined the effects of P1GF, a Flt1-specific ligand, on the induction of CTGF gene expression in vascular cells.
(§4) B) Cell Culture—Primary cultures of bovine retinal endothelial cells (BREC) and pericytes (BRPC) were isolated by homogenization and a series of filtration steps as described previously. BREC were subsequently cultured with endothelial cell basal medium supplemented with 10% plasma-derived horse serum, 50 mg/liter heparin, and 50 μg/ml endothelial cell growth factor. BRPC were cultured in Dulbecco's modified Eagle's medium with 5.5 mM glucose and 20% fetal bovine serum. Cells were cultured in 5% CO2 at 37° C., and media were changed every 3 days. Cells were characterized for their homogeneity by immunoreactivity with anti-factor VIII antibody for BREC and with monoclonal antibody 3G5 for BRPC. […] Only cells from passages 2 through 7 were used for the experiments.
as §1

CTGF protein [5] = assay: CTGF protein expression by Western blot analysis in BREC; type: cell-based, bovine; details: for CTGF protein expression increase: VEGF 25 ng/ml, TGF-β1 10 ng/ml
Procedure: (§5) E) Western Blot Analysis—Immunoprecipitated proteins or 30 μg of total cell lysates were subjected to SDS-gel electrophoresis and electrotransferred to nitrocellulose membrane (Bio-Rad). The membrane was soaked in blocking buffer (phosphate-buffered saline containing 0.1% Tween 20 and 5% bovine serum albumin) for 1 h at room temperature and incubated with primary antibody overnight at 4° C. followed by incubation with horseradish peroxidase-conjugated secondary antibody (Amersham Pharmacia Biotech). Visualization was performed using the enhanced chemiluminescence detection system (ECL, Amersham Pharmacia Biotech) per the manufacturer's instructions.

Flt1 [6] = molecular target: Flt1 (Homo sapiens, UniProt P17948); details: known value; cited from earlier work
Flt1 [7] = molecular target: T1, Flt1 (Bos taurus, UniProt F1MDD9); assay: Immunoblot of Flt1 immunoprecipitates from BRPC (phosphotyrosine, PI3-kinase p85); type: cell-based, bovine
T1 construct: endogenous in cells; host or cells: primary bovine retinal pericytes (BRPC)
T1 sequence (F1MDD9 1-1251): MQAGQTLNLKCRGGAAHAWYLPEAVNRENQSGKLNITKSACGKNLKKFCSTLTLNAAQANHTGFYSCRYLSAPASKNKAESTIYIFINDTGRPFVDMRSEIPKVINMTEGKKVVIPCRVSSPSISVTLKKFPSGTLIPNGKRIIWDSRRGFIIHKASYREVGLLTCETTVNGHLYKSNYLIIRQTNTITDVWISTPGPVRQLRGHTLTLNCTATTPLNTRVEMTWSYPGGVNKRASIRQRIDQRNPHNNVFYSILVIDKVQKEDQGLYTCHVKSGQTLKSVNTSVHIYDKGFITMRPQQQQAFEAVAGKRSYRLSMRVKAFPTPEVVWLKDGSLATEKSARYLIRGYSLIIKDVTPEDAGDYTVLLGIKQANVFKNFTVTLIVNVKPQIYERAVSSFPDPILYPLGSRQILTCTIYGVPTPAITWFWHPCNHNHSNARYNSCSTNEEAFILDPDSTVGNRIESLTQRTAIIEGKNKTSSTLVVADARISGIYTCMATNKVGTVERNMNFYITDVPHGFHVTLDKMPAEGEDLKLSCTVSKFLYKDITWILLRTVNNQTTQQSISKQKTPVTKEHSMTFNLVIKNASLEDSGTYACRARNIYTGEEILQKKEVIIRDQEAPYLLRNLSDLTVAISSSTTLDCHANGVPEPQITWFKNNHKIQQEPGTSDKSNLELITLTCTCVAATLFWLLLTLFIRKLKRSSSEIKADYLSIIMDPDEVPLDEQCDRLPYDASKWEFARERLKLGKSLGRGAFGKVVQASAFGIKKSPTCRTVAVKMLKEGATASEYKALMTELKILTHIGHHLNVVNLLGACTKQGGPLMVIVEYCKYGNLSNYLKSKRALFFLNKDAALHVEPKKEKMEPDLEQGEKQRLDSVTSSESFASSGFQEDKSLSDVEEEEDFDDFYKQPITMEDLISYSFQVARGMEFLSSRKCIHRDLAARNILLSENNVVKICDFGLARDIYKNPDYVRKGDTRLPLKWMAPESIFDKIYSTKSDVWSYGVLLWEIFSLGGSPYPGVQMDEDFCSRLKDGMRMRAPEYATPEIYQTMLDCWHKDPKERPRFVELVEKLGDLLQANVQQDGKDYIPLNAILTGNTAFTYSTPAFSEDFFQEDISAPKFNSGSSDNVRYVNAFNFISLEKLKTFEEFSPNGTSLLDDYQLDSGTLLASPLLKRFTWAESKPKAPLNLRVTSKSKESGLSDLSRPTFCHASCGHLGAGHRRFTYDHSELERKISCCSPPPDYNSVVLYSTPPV
Procedure: (§6) D) Immunoprecipitation—Cells were washed three times with cold phosphate-buffered saline and solubilized in 200 μl of lysis buffer (1% Triton X-100, 50 mmol/liter HEPES, 10 mmol/liter EDTA, 10 mmol/liter sodium pyrophosphate, 100 mmol/liter sodium fluoride, 1 mmol/liter sodium orthovanadate, 1 μg/ml aprotinin, 1 μg/ml leupeptin, and 2 mmol/liter phenylmethylsulfonyl fluoride). After centrifugation at 12,000 rpm for 10 min, 1.0 mg of protein was subjected to immunoprecipitation. To clear the protein extract, protein A-Sepharose (20 μl of a 50% suspension) was added to the cell lysates, after which they were incubated for 1 h, followed by centrifugation and collection of the supernatant. A specific rabbit anti-KDR or Flt1 antibody was added and rocked at 4° C. for 2 h; 20 μl of protein A-Sepharose was then added, and the sample was rocked for another 2 h at 4° C. For denaturation, protein A-Sepharose antigen-antibody conjugates were separated by centrifugation, washed five times, and boiled for 3 min in Laemmli sample buffer.

Akt = system: Akt
Procedure: as §5

Erk = system: Erk
Procedure: as §5

CTGF protein [8] = details: BRPC, 25 ng/ml, after 10 h
Procedure: as §5

KDR = molecular target: T2, KDR (Bos taurus, UniProt A0AAA9SPC9); assay: Immunoblot of KDR immunoprecipitates from BREC (phosphotyrosine, PI3-kinase p85); type: cell-based, bovine
T2 construct: endogenous in cells; host or cells: primary bovine retinal endothelial cells (BREC)
Procedure: as §6, §5

CTGF mRNA [9] = assay: CTGF mRNA expression by Northern blot analysis in BRPC; type: cell-based, bovine; details: for CTGF mRNA levels, maximum increase: 25 ng/ml, after 9 h
Procedure: as §3, §4, §1

[10] = cycloheximide 10 μg/ml, VEGF 25 ng/ml, 6 h
[11] = VEGF 25 ng/ml + cycloheximide 10 μg/ml, 6 h
[12] = inhibitor pretreatment (wortmannin 100 nM), VEGF 25 ng/ml 6 h

T2 sequence (A0AAA9SPC9 20-1356): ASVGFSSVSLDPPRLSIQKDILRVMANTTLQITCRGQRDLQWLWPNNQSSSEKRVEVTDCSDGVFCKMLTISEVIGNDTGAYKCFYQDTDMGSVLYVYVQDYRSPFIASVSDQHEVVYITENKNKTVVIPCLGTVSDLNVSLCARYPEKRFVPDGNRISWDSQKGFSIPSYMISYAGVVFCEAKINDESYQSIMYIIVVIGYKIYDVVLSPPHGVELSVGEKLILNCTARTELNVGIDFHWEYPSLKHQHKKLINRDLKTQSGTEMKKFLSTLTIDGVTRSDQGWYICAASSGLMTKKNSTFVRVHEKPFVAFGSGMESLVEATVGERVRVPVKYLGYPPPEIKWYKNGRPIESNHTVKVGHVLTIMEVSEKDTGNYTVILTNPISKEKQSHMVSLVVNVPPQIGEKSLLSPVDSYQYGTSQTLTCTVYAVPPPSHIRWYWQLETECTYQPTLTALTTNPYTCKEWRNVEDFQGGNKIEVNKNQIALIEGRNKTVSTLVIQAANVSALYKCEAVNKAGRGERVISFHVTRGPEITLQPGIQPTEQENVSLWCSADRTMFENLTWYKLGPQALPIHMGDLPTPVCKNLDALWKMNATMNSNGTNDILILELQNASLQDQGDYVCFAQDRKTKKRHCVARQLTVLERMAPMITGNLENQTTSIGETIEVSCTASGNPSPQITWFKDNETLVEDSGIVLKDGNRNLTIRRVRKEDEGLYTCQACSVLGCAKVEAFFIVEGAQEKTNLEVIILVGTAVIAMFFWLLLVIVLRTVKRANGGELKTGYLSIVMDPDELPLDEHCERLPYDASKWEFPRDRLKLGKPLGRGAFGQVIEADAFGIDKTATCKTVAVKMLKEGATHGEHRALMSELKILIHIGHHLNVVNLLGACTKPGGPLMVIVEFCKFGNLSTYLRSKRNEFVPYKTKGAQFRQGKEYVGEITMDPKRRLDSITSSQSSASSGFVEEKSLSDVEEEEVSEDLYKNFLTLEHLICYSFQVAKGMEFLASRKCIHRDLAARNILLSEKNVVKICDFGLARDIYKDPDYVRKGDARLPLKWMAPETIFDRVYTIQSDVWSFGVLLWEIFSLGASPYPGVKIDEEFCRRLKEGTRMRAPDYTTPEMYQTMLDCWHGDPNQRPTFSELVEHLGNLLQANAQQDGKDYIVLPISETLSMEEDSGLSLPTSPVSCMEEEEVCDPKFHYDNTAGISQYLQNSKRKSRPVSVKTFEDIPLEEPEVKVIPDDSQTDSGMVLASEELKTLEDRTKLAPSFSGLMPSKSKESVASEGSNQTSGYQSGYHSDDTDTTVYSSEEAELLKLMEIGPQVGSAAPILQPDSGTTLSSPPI
Flt1 (Homo sapiens, UniProt P17948), sequence (P17948 27-1338, species assumed): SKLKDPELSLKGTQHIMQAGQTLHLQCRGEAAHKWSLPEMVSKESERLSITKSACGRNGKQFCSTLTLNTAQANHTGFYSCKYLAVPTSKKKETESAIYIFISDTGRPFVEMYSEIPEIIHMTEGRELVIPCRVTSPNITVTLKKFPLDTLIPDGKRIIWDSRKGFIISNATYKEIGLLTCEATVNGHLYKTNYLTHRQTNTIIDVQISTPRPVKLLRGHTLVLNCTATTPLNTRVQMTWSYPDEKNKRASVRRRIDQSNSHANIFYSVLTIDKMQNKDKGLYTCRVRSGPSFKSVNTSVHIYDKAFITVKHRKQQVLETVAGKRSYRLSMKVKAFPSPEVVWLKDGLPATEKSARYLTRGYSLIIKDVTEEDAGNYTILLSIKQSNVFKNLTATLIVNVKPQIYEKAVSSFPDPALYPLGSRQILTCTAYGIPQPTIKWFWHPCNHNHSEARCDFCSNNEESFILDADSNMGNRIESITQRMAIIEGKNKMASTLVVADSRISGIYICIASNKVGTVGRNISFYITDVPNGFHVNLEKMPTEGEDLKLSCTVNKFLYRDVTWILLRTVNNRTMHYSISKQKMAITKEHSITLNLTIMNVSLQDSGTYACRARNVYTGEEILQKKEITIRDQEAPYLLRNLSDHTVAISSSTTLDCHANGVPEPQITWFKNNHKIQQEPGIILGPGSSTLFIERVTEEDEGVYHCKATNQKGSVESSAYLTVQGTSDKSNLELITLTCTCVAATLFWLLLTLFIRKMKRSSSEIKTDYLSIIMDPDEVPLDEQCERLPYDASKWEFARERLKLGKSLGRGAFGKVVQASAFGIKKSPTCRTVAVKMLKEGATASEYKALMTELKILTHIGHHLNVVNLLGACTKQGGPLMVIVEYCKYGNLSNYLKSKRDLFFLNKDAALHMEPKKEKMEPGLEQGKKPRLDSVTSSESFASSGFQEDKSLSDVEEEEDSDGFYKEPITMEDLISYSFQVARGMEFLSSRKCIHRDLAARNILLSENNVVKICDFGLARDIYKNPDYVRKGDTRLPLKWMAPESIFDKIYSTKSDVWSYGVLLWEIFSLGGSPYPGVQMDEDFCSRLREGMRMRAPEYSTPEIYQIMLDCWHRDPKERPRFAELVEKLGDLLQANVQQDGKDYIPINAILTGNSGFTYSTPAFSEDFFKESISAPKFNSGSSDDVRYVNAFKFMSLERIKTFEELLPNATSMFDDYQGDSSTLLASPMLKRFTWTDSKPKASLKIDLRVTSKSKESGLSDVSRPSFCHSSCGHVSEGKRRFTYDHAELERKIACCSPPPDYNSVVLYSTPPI

C[C@@H]1C[C@@H]([C@H](O)CC2CC(=O)NC(=O)C2)C(=O)[C@@H](C)C1 [Cycloheximide, cycloheximide]
effect on VEGF-induced increase of CTGF mRNA [1, 10]: did not prevent
effect on VEGF-induced increase of CTGF mRNA [2, 10]: did not prevent

Vascular endothelial growth factor (VEGF) (ligand)
CTGF mRNA (Northern blot, BREC, 25 ng/ml VEGF, maximum after 6 h) [3]: 3.1 fold
CTGF mRNA (Northern blot, BRPC, 25 ng/ml VEGF, maximum after 9 h) (Flt1 (VEGFR1) (bovine)): 2 fold

TGF-β1: transforming growth factor-β1, from R & D Systems
CTGF mRNA levels increase (comparative study) (CTGF mRNA [4]): 3.3±0.5 fold
CTGF protein expression increase (CTGF protein [5]): 2.8±0.8 fold

COc1cccc(-c2cc(=O)c3ccccc3o2)c1N [PD98059]
effect on VEGF-induced CTGF mRNA expression ([2]; VEGF 25 ng/ml 6 h): Neither GF 109203X nor PD98059 had significant effects

VEGF
Kd (Flt1 [6]): 0.01 to 0.1 nM
interactions of Flt1 and p85 subunit of PI3-kinase (Flt1 [7]): increased
tyrosine phosphorylation of Flt1 (Flt1 [7]): increased
phosphorylation of Akt (Akt; BREC): 3.1 fold
phosphorylation of Akt (Akt; BRPC): 2.6 fold
phosphorylation of Erk (Erk; BREC): 5.8 fold
Erk phosphorylation (Erk; BRPC): No effect
level of CTGF protein (CTGF protein [8]): increased
CTGF mRNA levels, maximum increase (CTGF mRNA [4]; 25 ng/ml, after 6 h): 3.1±0.70 fold
concentration of maximal increase of CTGF mRNA (CTGF mRNA [4]; 6 h of stimulation): 25 ng/mL
lowest concentration with significant increase of CTGF mRNA (CTGF mRNA [4]; 6 h of stimulation): 0.25 ng/mL
CTGF mRNA increase with cycloheximide, compared with cycloheximide alone (CTGF mRNA [4]; [11]): 2.4±0.41 fold
CTGF mRNA levels increase (comparative study) (CTGF mRNA [4]): 3.0±0.3 fold
interactions of KDR and p85 subunit of PI3-kinase (KDR): promoted
tyrosine phosphorylation of KDR (KDR): promoted
CTGF mRNA levels, maximum increase (CTGF mRNA [9]): 2.0±0.22 fold
concentration of maximal increase of CTGF mRNA (CTGF mRNA [9]; 6 h of stimulation): 25 ng/mL
lowest concentration with significant increase of CTGF mRNA (CTGF mRNA [9]; 6 h of stimulation): 0.25 ng/mL
CTGF mRNA increase with cycloheximide, compared with cycloheximide alone (CTGF mRNA [9]; [11]): 2.5±0.40 fold
level of CTGF protein (CTGF protein [5]; 25 ng/ml, after 10 h): increased
CTGF protein expression increase (CTGF protein [5]): 2.5±0.4 fold

placenta growth factor (P1GF) (ligand)
CTGF mRNA (Northern blot, BRPC, 25 ng/ml P1GF, peak after 9 h) (Flt1 (VEGFR1) (bovine)): 1.9 fold

CN(C)CCCn1cc(C2=C(c3c[nH]c4ccccc34)C(=O)NC2=O)c2ccccc21 [GF 109203X]
effect on VEGF-induced CTGF mRNA expression ([1]; pretreatment GF 109203X 1 μM or PD98059 20 μM, VEGF 25 ng/ml 6 h): Neither GF 109203X nor PD98059 had significant effects
effect on VEGF-induced CTGF mRNA expression ([2]; VEGF 25 ng/ml 6 h): Neither GF 109203X nor PD98059 had significant effects

COC[C@H]1OC(=O)c2coc3c2[C@@]1(C)C1=C(C3=O)[C@@H]2CCC(=O)[C@@]2(C)C[C@H]1OC(C)=O [wortmannin]
inhibition of the effects of VEGF on CTGF mRNA expression [1, 12]: 88±6.5%
inhibition of the effects of VEGF on CTGF mRNA expression [2, 12]: 78±22%

B1: P1GF: placenta growth factor, a Flt1 receptor-specific ligand, from R & D Systems (protein, UniProt P49763 19-221, looked up)
Placenta growth factor: LPAVPPQQWALSAGNGSSEVEVVPFQEVWGRSYCRALERLVDVVSEYPSEVEHMFSPSCVSLLRCTGCCGDENLHCVPVETANVTMQLLKIRSGDRPSYVELTFSQHVRCECRHSPGRQSPDMPGDFRADAPSFLPPRRSLPMLFRMEWGCALTGSQSAVWPSSPVPEEIPRMHPGRNGKKQQRKPLREKMKPERCGDAVPRR
interactions of Flt1 and p85 subunit of PI3-kinase (Flt1 [7]): increased
tyrosine phosphorylation of Flt1 (Flt1 [7]): increased
CTGF mRNA levels after stimulation (CTGF mRNA [4]; 25 ng/ml): not affected
interactions of KDR and p85 subunit of PI3-kinase (KDR): not
tyrosine phosphorylation of KDR (KDR): not
CTGF mRNA levels, maximum increase (CTGF mRNA [9]): 1.9±0.30 fold
